From patent publication US9547017B2, “Genetically encoded fluorescent sensors for detecting intracellular signalling through diacylglycerol pathways” (MONTANA MOLECULAR LLC, priority 2012, dated 2017)
Entries after “also recorded” stand apart in the source; their conditions may differ. Each block holds one molecule with its values, some of them ahead of it.

What was measured:
P2Y11 receptor [1] = molecular target: T1, P2Y11 receptor (Homo sapiens, UniProt Q96G91); assay: Multiplex DAG2 and R-GECO1 sensors with P2Y11 receptor in HEK 293 cells; assay type: cell-based; parameters: expressed in transfected cells; host or cells: HEK 293; conditions: HEK cells expressing human P2Y11 receptor
T1 sequence (Q96G91 1-374): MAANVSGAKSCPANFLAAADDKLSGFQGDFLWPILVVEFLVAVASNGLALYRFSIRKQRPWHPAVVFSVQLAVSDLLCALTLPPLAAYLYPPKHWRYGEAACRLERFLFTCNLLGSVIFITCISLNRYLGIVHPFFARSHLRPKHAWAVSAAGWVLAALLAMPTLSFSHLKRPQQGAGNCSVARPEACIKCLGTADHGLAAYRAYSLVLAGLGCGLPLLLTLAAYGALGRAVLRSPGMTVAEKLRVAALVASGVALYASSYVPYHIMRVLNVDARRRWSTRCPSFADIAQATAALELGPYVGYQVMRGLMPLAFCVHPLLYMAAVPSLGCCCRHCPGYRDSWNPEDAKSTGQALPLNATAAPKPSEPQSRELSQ
Excerpt: To explore whether multiplex sensors could be used to detect this distinct signaling pattern, we expressed the human P2Y11 receptor with combinations of the Downward DAG2, or Upward DAG2, and R-GECO1 sensors. […] (FIG. 8).

P2Y11 receptor [2] = molecular target: T1, P2Y11 receptor; conditions: reported in reference (29), different cell line; cited from earlier work
DAG sensors [3] = assay: Effect of DMSO on the DAG assay; assay type: cell-based
Procedure: Many compound libraries are carried by DMSO, a vehicle that can cause artifacts in live cell assays. […] At moderate final concentrations of 0.1 to 1%, the DMSO produced no effect, while at higher concentrations artifactual, DMSO triggered changes in fluorescence did occur. The effect of DMSO on the DAG sensors was negligible at final concentrations of 0.1 to 1%, but detectable at 2% or greater.

DAG sensors [4] = assay: Direct activation of DAG sensors in cells by phorbol ester PDBu; assay type: cell-based
Excerpt: In transient expression it is possible to produce high concentrations of the protein-based sensor than the analyte itself [Falkenburger et al].
(§1) To test for the independence of the signals being detected by these sensors, we increased intracellular Ca2+ by applying ionomycin.

intracellular Ca2+ = assay: Independence test: ionomycin raises intracellular Ca2+ in cells expressing Ca2+, DAG or PIP2 sensors; assay type: cell-based
Excerpt: as §1

DAG = DAG sensor fluorescence change on carbachol stimulation of co-expressed M1 receptor in HEK 293 cells (time-lapse imaging); assay type: cell-based, human
Excerpt: These changes were easily detected in time-lapse imaging and occurred in all transfected cells with remarkably little cell to cell variability. […] The signals then returned to baseline quite slowly (t-170 seconds, FIG. 3C).

PIP2 and DAG = assay: Co-expressed PIP2r and DAG sensors, M1 receptor activation (PLC substrate and product); assay type: cell-based; conditions: PIP2r co-expressed with DAG sensor, FIG. 7A
Excerpt: Stimulation of phospholipase C cleaves PIP2 and produces DAG. Co-expression of the Upward DAG2 or Downward DAG2 sensor with the PIP2r sensor provides a new view of both the substrate and product of phopholipase C (FIG. 7). To our knowledge, this is the first time that genetically encoded biosensors have been used to simultaneously measure substrate and product. M1 receptor activation produced a remarkable change in the intensity and distribution of both sensors. […] The onset of the response of the Upward and Downward DAG2 sensors, as well as PIP2r, is kinetically quite similar. However the return to baseline is considerably slower for the Downward DAG2 and PIP2r sensors (FIG. 7B).

PIP2 = PIP2 sensor response to M1 receptor activation; assay type: cell-based; conditions: FIGS. 6A and B
Excerpt: Phospholipase C hydrolyses PIP2 to produce both DAG and IP3. To independently check the fidelity and kinetics of the DAG sensors, we created a red fluorescent PIP2 sensor by fusing the pleckstrin homology (PH) domain of PLCδ to two different components of the recently described dimerization-dependent red fluorescent proteins (26). Previous work has shown that the translocation of the PLCδ PH domain can be used to measure PIP2 turnover (27), and if the PH domains carry FRET pairs of fluorescent proteins a small change in FRET occurs when PLC is activated (28). […] Because this sensor relies on the fluorescence of one protein, rather than a FRET pair, it could be multiplexed with the green fluorescent DAG sensors for simultaneous measurement of both PIP2 and DAG in living cells. The amino acid sequences of this pair of constructs forming a novel PIP2 sensor are shown as SEQ ID NO:70 and SEQ ID NO:71, and the nucleotide sequences encoding them are shown as SEQ ID NO:72 and SEQ ID NO:73.

[5] = carbachol stimulation of the M1 receptor

Molecule: Nc1ncnc2c1ncn2[C@@H]1O[C@H](COP(=O)(O)OP(=O)(O)OP(=O)(O)O)[C@@H](O)[C@H]1O [ATP]
Ca2+ response (R-GECO1) (P2Y11 receptor [1]): triggered a Ca2+ response; also recorded: transient increase in Ca2+
PLC pathway signaling (Upward or Downward DAG2 sensors) (P2Y11 receptor [1]): triggers signaling via the phospholipase C pathway; also recorded: activating the PLC pathway
signaling at the P2Y11 receptor as reported (P2Y11 receptor [2]): produces inositol phosphate turnover and transient Ca2+ signaling

Molecule: C[S+](C)[O-] [DMSO]
effect of DMSO on the DAG sensors (DAG sensors [3]; 2% or greater): detectable
effect of DMSO on the DAG sensors (DAG sensors [3]; final concentrations of 0.1 to 1%): negligible; also recorded: no effect

Molecule: CCCC(=O)O[C@@H]1[C@@H](C)[C@@]2(O)[C@@H](C=C(CO)C[C@]3(O)C(=O)C(C)=C[C@@H]23)[C@@H]2C(C)(C)[C@]12OC(=O)CCC [PDBu]
additional change in sensor fluorescence on PDBu applied after carbachol (DAG sensors [4]; cells first stimulated with carbachol, then PDBu): additional increase in fluorescence; also recorded: additional doubling of the change in intensity
activation of DAG sensor by PDBu added after ionomycin (DAG sensors [4]; subsequent addition after ionomycin, FIG. 4C): activates Downward DAG; also recorded: subsequently activated

Molecule: O=c1ccn([C@@H]2O[C@H](COP(=O)(O)OP(=O)(O)OP(=O)(O)O)[C@@H](O)[C@H]2O)c(=O)[nH]1 [UTP]
Ca2+ response (R-GECO1) (P2Y11 receptor [1]): triggered a Ca2+ response; also recorded: transient increase in Ca2+
PLC pathway signaling (Upward or Downward DAG2 sensors) (P2Y11 receptor [1]): causing a Ca2+ transient in a very different way; also recorded: producing a Ca2+ transient through a different pathway
signaling at the P2Y11 receptor as reported (P2Y11 receptor [2]): only triggers a Ca2+ response

Molecule: C[C@H](CCC(=O)O)C[C@H](C)C[C@H](C)C(=O)/C=C(\O)[C@H](C)C[C@H](C)C/C=C/[C@@H](C)[C@@H](O)[C@@H](C)[C@@H](O)C[C@@H]1CC[C@@](C)([C@H]2CC[C@@](C)([C@@H](C)O)O2)O1 [ionomycin]
effect of raising intracellular Ca2+ on DAG and PIP2 levels (intracellular Ca2+; ionomycin added before PdBU or M1 receptor activation, FIGS. 6C and D): no apparent effect on the DAG and PIP2 levels
R-GECO (Ca2+ sensor) response (intracellular Ca2+; ionomycin applied, FIG. 4C): produces a change in R-GECO; also recorded: robust R-GECO1 response
change in DAG sensor (intracellular Ca2+; ionomycin applied, FIG. 4C): not Downward DAG; also recorded: no detectable change in the DAG sensor

Molecule: Downward DAG: DAG sensor: cpEGFP at K152 of PKC delta truncated at L122; fluorescence decreases upon binding to DAG
loss (decrease) in fluorescence (DAG; [5]): 40%
time over which the fluorescence loss occurs (DAG; mean of 4 cells): 15 s

change in sensor fluorescence on M1 receptor activation (PIP2 and DAG): green fluorescence increases
Molecule: Upward DAG: DAG sensor: cpEGFP at N158 of PKC delta truncated at L122; fluorescence increases upon binding to DAG
fluorescence increase (DAG; [5]): 45%

change in sensor fluorescence on M1 receptor activation (PIP2 and DAG): red fluorescence decreases
red fluorescent signal at the membrane with M1 receptor activation (PIP2): rapidly disappeared
B1: PIP2 sensor: red fluorescent PIP2 sensor: PH domain of PLCδ fused to each member of the ddRFP pair (protein)
chain 1: MVSKSEEVIKEFMRFKVRLEGSMNGHEFEIEGEGEGRPYEGTQTAKLKVTKGGPLPFAWDILSPQIMYGSKAYVKHPADVPDYMKLSFPEGFKWERVMHFEDGGLVTVTQDTSLQDGTLIYKVKMRGTNFPPDGPVMQKKTLGWDYATERLYPEDGVLKGELLGRLKLKDGGLNLVEFKTIYMAKKPVQLPGYYFVDTKLGITSHNEDYTIVEQYERSEGRHHLGMDELYKRSRAQASNSAVDGTAGPGSMDSGRDFLTLHGLQDDEDLQALLKGSQLLKVKSSSWRRERFYKLQEDCKTIWQESRKVMRTPESQLFSIEDIQEVRMGHRTEGLEKFARDVPEDRCFSIVFKDQRNTLDLIAPSPADAQHWVLGLHKIIHHSGSMDQRQKLQHWIHSCLRKADKNKDNKMSFKELQNFLKELNIQ
chain 2: MVSKGEETIKEFMRFKVRMEGSMNGHEFEIEGEGEGRPYEGTQTAKLKVTKGGPLPFAWDILSPQFMYGSEAYVRHPADIPDYKKLPFPEGFKWERVMNFEDGGLVTVTQDSSLQDGTLICKVKMRGTNFPPDGPVMQKKTMGWEASTEMLYPEDGVLKGHSYQALKLKDGGHYLVEFETIYMAKKPVQLPGDYCVDTKLDITSHNEDYTIVEQYGRSEGRHRLGMDERYKRSRAQASNSAVDGTAGPGSMDSGRDFLTLHGLQDDEDLQALLKGSQLLKVKSSSWRRERFYKLQEDCKTIWQESRKVMRTPESQLFSIEDIQEVRMGHRTEGLEKFARDVPEDRCFSIVFKDQRNTLDLIAPSPADAQHWVLGLHKIIHHSGSMDQRQKLQHWIHSCLRKADKNKDNKMSFKELQNFLKELNIQ
modifications: Synthetic sequence, a.a. sequence of PIP2 sensor fragment [PIP2-A1]; Synthetic sequence, a.a. sequence of PIP2 sensor fragment [PIP2-B1]
notes: red fluorescent PIP2 sensor: PH domain of PLCδ fused to each member of the ddRFP pair
